Experiment [1] has as its system 3T3-L1 pre-adipocytes. The following applies: comparative compound, stated as already shown; cited from earlier work.
The subject of experiment [2] is THP-1 cells differentiated into macrophages (macrophage foam cells). The experiment in a line: Cholesterol efflux assay from macrophage foam cells. It is filed as cell-based. Conditions: 1 μM final concentration, 10 μg/ml ApoA-I, 24 hr, vs non treated cells. On the procedure:
Cholesterol efflux from macrophage foam cells was assayed as described by Sparrow. et al, J. Biol. Chem., 2002, 277, 10021-10027, which is incorporated herein in its entirety by this reference. THP-1 cells obtained from ATCC (Manassas, VI), were cultured in RPMI medium (Sigma, St-Louis, Mo.), containing 10% fetal calf serum (Sigma, St-Louis, Mo.), […] 2-mercaptoethanol, 1 mM sodium pyruvate, 2 mM L-glutamine, 100 units/ml penicillin, […] streptomycin and 0.25 μg/ml amphotericin B obtained from Sigma (St-Louis, Mo.). The THP-1 cells were differentiated into macrophages in 24 well tissue culture dishes at a density of 0.5 million cells/well by incubation in the same medium plus 100 nM tetradecanoyl phorbol acetate (Sigma, St-Louis, Mo.), for 3 days.
After differentiation into macrophages, the cells were tested for cholesterol efflux as induced by Compound 11 of the invention. Cells were labeled by incubation for 24 hr in fresh growth medium containing [3H]-cholesterol (10 μCi/ml) (PerkinElmer, Boston, Mass.), and 50 μg/ml acetylated-LDL (Frederick, Md.) and 1% Fetal bovine serum (Sigma, St-Louis, Mo.). […] Media were briefly centrifuged to remove non-adherent cells, and then aliquots of both the supernatant and the dissolved cells were counted by liquid scintillation spectrometry to determine radioactivity.

For experiment [3], the system named is carcinogen induced mammary tumors. The experiment in a line: Carcinogen induced mammary tumors in Sprague Dawley rats. It is filed as in vivo, rat. Conditions: combination treatment with tamoxifen (800 μg/kg) compared to tamoxifen alone. The method, then:
Procedure: Five week-old female Sprague Dawley rats (Harlan) were housed in a fixed 12-12-hr artificial light-dark cycle, and maintained on a standard rodent diet provided ad libitum. Animals were allowed two days to acclimate in this experimental environment prior to the initiation of the study.
To induce mammary tumors, the female […] were injected intraperitoneally with the carcinogen n-nitroso-n-methylurea, in a single dose of 50 mg/kg in acidified normal saline (pH4 w/acetic acid) at a final volume of 10 mg/ml (5 ml/kg). After eight weeks, mammary tumors are detected, and the tumor bearing females are sorted into treatment groups. Once sorted, the animals were housed four per cage and provided rodent diet ad libitum. All animals are treated with test compound or a vehicle for four weeks, during which time, changes in tumor size are monitored. Tumors were classified as regressing, static or progressing.
Treatment groups (n=8/group): • 1) Control (sesame oil) • 2) Tamoxifen (800 μg/kg) • 3) Compound 1 (10 mg/kg) • 4) Compound 1 (20 mg/kg) • 5) Compound 1 (50 mg/kg) • 6) Compound 1 (100 mg/kg) • 7) Compound 1 (20 mg/kg)+Tamox. (800 μg/kg) • 8) Compound 9 (75 mg/kg) • 9) Compound 11 (20 mg/kg) • 10) Compound 11 (20 mg/kg)+Tamox. (800 μg/kg) • 11) Compound 11 (50 mg/kg) […]

As to `Cc1cc2c(cc1-c1cc(/C=C3\SC(=O)NC3=O)ccc1OC(F)(F)F)C(C)(C)CCC2(C)C` [Compound 41, 5-[3-(3,5,5,8,8-Pentamethyl-5,6,7,8-tetrahydro-naphthalen-2-yl)-4-trifluoromethoxy-benzylidene]-thiazolidine-2,4-dione], the “inducer of adipocyte differentiation” value in experiment [1] was “potent inducer of adipocyte differentiation”.
On to `COc1c(F)cc(/C=C2\SC(=O)NC2=O)c(F)c1-c1cc2c(cc1C)C(C)(C)OCC2(C)C` [Compound 11, 5-[2,5-Difluoro-4-methoxy-3-(1,1,4,4,7-pentamethyl-isochroman-6-yl)-benzylidene]-thiazolidine-2,4-dione], for which the results for the cholesterol efflux result in experiment [2] and in experiment [2] (listed as compound 11) were “effective for inducing cholesterol efflux” and “increases cholesterol efflux”, respectively.
Turning to `Cc1cc2c(cc1-c1cc(/C=C3\SC(=O)NC3=O)ccc1OC(F)(F)F)C(C(C)C)=CCC2(C)C` [Compound 1, 5[3-(8-Isopropyl-3,5,5-trimethyl-5,6-dihydro-naphthalen-2-yl)-4-trifluoromethoxy-benzylidene]-thiazolidine-2,4-dione], the “effect on mammary tumors in combination with tamoxifen” value in experiment [3] is reported as “unexpectedly improved and/or synergistic effects”.

The values are drawn from patent US20050038098A1, “Substituted dihydronaphthalene and isochroman compounds for the treatment of metabolic disorders, cancer and other diseases” (priority 2003, published 2005).
